What was measured:
[1] = biological target: BRD4(BD1) (Homo sapiens (Human), UniProt O60885); assay: In vitro bromodomain inhibition assay (AlphaLISA); assay type: binding; conditions: His-tagged BRD4 BD1 200 nM, biotinylated H4-tetraacetyl peptide 200 nM
Experimental: To measure activity of bromodomain inhibitors, a His-epitope tagged BRD4 BD149-170 is purchased from BPS Bioscience. BRD4 binding and inhibition is assessed by monitoring the engagement of biotinylated H4-tetraacetyl peptide (H4K5/8/12/16; AnaSpec #64989-025) with the target using the AlphaLISA technology (Perkin-Elmer). Specifically, in a 384 well OptiPlate, BRD4(BD1) (200 nM final) is pre-incubated with either DMSO (final 1.0% DMSO) or a compound dilution series in DMSO. All reagents are diluted in assay buffer containing 50 mM HEPES (pH 7.4), 100 mM NaCl, 0.1% (w/v) BSA, and 0.05% (w/v) CHAPS. After a 30 minute incubation at rt, H4 peptide is added (200 nM final) and the reaction is incubated an additional 30 minutes at rt. Alpha streptavidin donor beads and AlphaLISA nickel chelate acceptor beads are then added to a final concentration of 10 μg/mL each. After one hour, equilibration plates are read on an Envision instrument and IC50s calculated using a four parameter non-linear curve fit (results are shown in Table 1).

[2] = tested on: human C-Myc transcription in MV-4-11 cells; assay: Transcription of human C-Myc in human leukemic MV-4-11 cells (QuantiGene 2.0); assay type: cell-based; conditions: Homo sapiens, MV4-11, 4 h, inhibition of C-Myc mRNA, 4 hours treatment, read-out: IC50 MV-4-11 Cell
Experimental: The effect of compounds on transcription of human C-Myc gene is monitored in human B-myelomonocytic leukemia cell line MV-4-11 (from American Type Culture Collection (ATCC), Manassas, Va., USA) using QuantiGene 2.0 assay kit (Affymetrix, Santa Clara, Calif., USA).
Typically, 8,000 MV-4-11 cells are plated in sterile 96-well plates (Costar #3598 from Fisher Scientific Canada, Ottawa, Ontario, Canada) in Iscove's medium supplemented with 10% fetal bovine serum, glutamine (2 mM), and penicillin (100 I.U.) and streptomycin (100 μg/mL) (all from Wisent Inc., St. Bruno, Quebec, Canada). Compounds are dissolved in DMSO at 30 mM. A series of 1:3 dilutions are first made in DMSO, and further 1:100 dilutions are made in serum-containing cell culture media. The final concentration of DMSO is 0.1% in cell culture media. After cells are treated with various concentrations of test compound for 4 hours, cells are lysed using Quantigene 2.0 sample processing kit (# QS0100). C-Myc mRNA is detected using a QuantiGene 2.0 assay kit (# QS0009) with gene-specific probe to human C-Myc (# SA-50182) following the manufacturer's recommendations. Luminescene signals are read on Flexstation II microplate reader (Molecular Devices, Sunnyvale, Calif., USA).

IC50 [1] [nM]	IC50 [2] [nM]	Structure (SMILES)
280	520	COCCn1c(C2CC2)nc2ccc(-c3cc(C)c(=O)n(C)c3)cc21 [Compound 7, 5-[2-cyclopropyl-3-(2-methoxyethyl)benzimidazol-5-yl]-1,3-dimethyl-pyridin-2-one]
99	62	COC[C@@H](C)n1c(C2CCOCC2)nc2ccc(-c3cc(C)c(=O)n(C)c3)cc21 [Compound 10, 5-[3-[(1R)-2-methoxy-1-methyl-ethyl]-2-tetrahydropyran-4-yl-benzimidazol-5-yl]-1,3-dimethyl-pyridin-2-one]
100	240	COC[C@@H](C)n1c(C2CC2)nc2ccc(-c3cc(C)c(=O)n(C)c3)cc21 [Compound 15, 5-[2-cyclopropyl-3-[(1R)-2-methoxy-1-methylethyl]benzimidazol-5-yl]-1,3-dimethyl pyridin-2-one]
810	850	Cn1cc(-c2ccc3nc(C4CC4)n(CCOC(F)(F)F)c3c2)cc(C(F)(F)F)c1=O [Compound 13, 5-[2-cyclopropyl-3-[2-(trifluoromethoxy)ethyl]benzimidazol-5-yl]-1-methyl-3-(trifluoromethyl)pyridin-2-one]
330	550	COC[C@@H](C)n1cnc2ccc(-c3cc(C)c(=O)n(C)c3)cc21 [Compound 12, 5-[3-[(1R)-2-methoxy-1-methyl-ethyl]benzimidazol-5-yl]-1,3-dimethyl-pyridin-2-one]

Continued, molecule first:

Structure (SMILES)	IC50 [1] [nM]	IC50 [2] [nM]
Cc1cc(-c2ccc3nc(C4CCC4)n(CCOC(F)(F)F)c3c2)cn(C)c1=O [Compound 6, 5-[2-cyclobutyl-3-[2-(trifluoromethoxy)ethyl]benzimidazol-5-yl]-1,3-dimethyl-pyridin-2-one]	91	56
Cc1cc(-c2ccc3ncn(CCOC(F)(F)F)c3c2)cn(C)c1=O [Compound 3, 1,3-dimethyl-5-[3-[2-(trifluoromethoxy)ethyl]benzimidazol-5-yl]pyridin-2-one]	310	95
Cc1cc(-c2ccc3nc(C)n(CCOC(F)(F)F)c3c2)cn(C)c1=O [Compound 5, 1,3-dimethyl-5-[2-methyl-3-[2-(trifluoromethoxy)ethyl]benzimidazol-5-yl]pyridin-2-one]	190	230
Cc1cc(-c2ccc3nc(C4CC4)n(CCOC(F)(F)F)c3c2)cn(C)c1=O [Compound 2, 5-[2-cyclopropyl-3-[2-(trifluoromethoxy)ethyl]benzimidazol-5-yl]-1,3-dimethylpyridin-2-one]	190	86

Reference: patent publication US10703740B2, “Substituted benzimidazoles, their preparation and their use as pharmaceuticals” (NEOMED Institute, priority 2015, dated 2020)
